Data taken from ChEMBL document CHEMBL1147317, “Metachromin C, a new cytotoxic sesquiterpenoid from the Okinawan marine sponge Hippospongia metachromia” (J Nat Prod, 1989).
≈ marks a conversion by molar mass, not a printed value.

Experiments:
[1] = Vasodilatory activity in rabbit coronary artery assessed as inhibition of KCl-induced contraction; type: functional, tissue-based, Oryctolagus cuniculus
L1210 = assay: Cytotoxicity against mouse L1210 cells; type: functional, cell-based
L5178Y = assay: Cytotoxicity against mouse L5178Y cells; type: functional, cell-based

Compound C=C1[C@H](C)CCC[C@]1(C)CC/C(C)=C/CC1=C(O)C(=O)C=C(OC)C1=O [METACHROMIN A] has an IC50 [1] of 3000 nM.

Compound C=C1[C@H](C)CCC[C@]1(C)CC[C@@]1(C)C=Cc2c(O)c(OC)cc(OC)c2O1 [METACHROMIN B] has an IC50 [1] of 3000 nM.

COC1=CC(=O)C(O)=C(C/C=C(\C)CC[C@@]2(C)CCC=C(C)[C@H]2C)C1=O [METACHROMIN C] showed an IC50 (L1210) of 2 µg/mL (≈ 5.58 µM), an IC50 [1] of 3000 nM and an IC50 (L5178Y) of 0.92 µg/mL (≈ 2.57 µM).
